Type in all cases: in vivo
The test system of assay [1] is Pseudoperonospora cubensis. The assay can be described thus: Test A: cucumber downy mildew, spray the day before inoculation (disease rating, 100 = 100% disease control). The source says:
The test compounds were first dissolved in acetone in an amount equal to 3% of the final volume and then suspended at the desired concentration (in ppm) in acetone and purified water (50/50 mix by volume) containing 250 ppm of the surfactant Trem® 014 (polyhydric alcohol esters). The resulting test suspensions were then used in tests A-E. Spraying a 200 ppm test suspension to the point of run-off on the test plants was the equivalent of a rate of 500 g/ha.
The test suspension was sprayed to the point of run-off on cucumber seedlings. The following day the seedlings were inoculated with a spore suspension of Pseudoperonospora cubensis (the causal agent of cucumber downy mildew) and incubated in a saturated atmosphere at 20° C. for 24 h, and then moved to a growth chamber at 20° C. for 6 days, after which disease ratings were made.
Results for Tests A-F are given in Table A. In the table, a rating of 100 indicates 100% disease control and a rating of 0 indicates no disease control (relative to the controls). A dash (-) indicates no test results.

Another assay concerns Phytophthora infestans. In words: whole plant or invertebrate. Conditions: tomato late blight.
Assay [2] relates to Erysiphe graminis f. sp. tritici. The assay can be described thus: Test E: wheat powdery mildew, spray the day before inoculation (disease rating, 100 = 100% disease control). The procedure, abridged: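 Protective test: spores of E. graminis f. sp. tritici dusted on wheat seedlings one day after run-off spraying of test suspension (acetone/water with 250 ppm surfactant; 200 ppm = 500 g/ha). Ratings after 7 days in growth chamber at 20° C, 100 = full control, 0 = none, relative to controls.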

The test system of another assay is Plasmopara viticola. In words: Test B: grape downy mildew, spray 24 h after inoculation (disease rating, 100 = 100% disease control). A digest of the protocol: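 This is a curative spray test, applied 24 h after inoculation. Compounds in 50/50 acetone–water with 250 ppm Trem 014 surfactant were sprayed to run-off on P. viticola-infected seedlings, with 200 ppm equating to 500 g/ha. Plants were kept 5 days in a 20 °C growth chamber, then 24 h humid, and scored 0–100 for disease control relative to controls.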

[3] abbreviates: spray the day before inoculation, compounds without asterisk (not 40 or 10 ppm).
[4] abbreviates: spray 24 h after inoculation, compounds without asterisk (not 40 or 10 ppm).
The mark [5] stands for this setting: sprayed the day before inoculation, unmarked compounds (no asterisk, not 40 or 10 ppm).
[6] abbreviates: sprayed the day before inoculation, 7 days at 20° C., unmarked compounds (no asterisk, not 40 or 10 ppm).
[7] abbreviates: sprayed 24 h after inoculation, unmarked compounds (no asterisk, not 40 or 10 ppm).

In the case of “2-[1-[[3,5-bis(trifluoromethyl)-1H-pyrazol-1-yl]acetyl]-4-piperidinyl]-N-methyl-N-[(1R)-1,2,3,4-tetrahydro-1-naphthalenyl]-4-thiazolecarboxamide [Compound 210]”, the “Test A disease rating (100 = 100% disease control, 0 = no disease control)” value in assay [1] (setting [3]) is recorded as 0%. In addition, the “Test C disease rating (100 = 100% disease control, 0 = no disease control)” value in the assay with Phytophthora infestans (setting [3]) came out at 0%. In addition, the “Test E disease rating (100 = 100% disease control, 0 = no disease control)” value in assay [2] (setting [3]) was 0%. Besides, the “Test B disease rating (100 = 100% disease control, 0 = no disease control)” value with Plasmopara viticola (setting [4]) amounted to 6%.
Regarding “2-[1-[[5-chloro-3-(trifluoromethyl)-1H-pyrazol-1-yl]acetyl]-4-piperidinyl]-N-methyl-N-[(1R)-1,2,3,4-tetrahydro-1-naphthalenyl]-4-thiazolecarboxamide [Compound 249]”, in assay [1] (setting [3]), the “Test A disease rating (100 = 100% disease control, 0 = no disease control)” value was found to be 0%. Moreover, the “Test C disease rating (100 = 100% disease control, 0 = no disease control)” value in the assay with Phytophthora infestans (setting [3]) was found to be 0%. Also, the “Test E disease rating (100 = 100% disease control, 0 = no disease control)” value in assay [2] (setting [3]) is 0%. Further, the “Test B disease rating (100 = 100% disease control, 0 = no disease control)” value in the assay on Plasmopara viticola (setting [4]) worked out at 0%.
Turning to “2-[4-[(2,5-dimethylphenyl)acetyl]-1-piperazinyl]-N-methyl-N-[(1R)-1-phenylethyl]-5-thiazolecarboxamide [Compound 74]”, the “Test A disease rating (100 = 100% disease control, 0 = no disease control)” value in assay [1] (setting [3]) was 0%. The “Test C disease rating (100 = 100% disease control, 0 = no disease control)” value in the assay with Phytophthora infestans (setting [3]) was 0%. Also, the “Test E disease rating (100 = 100% disease control, 0 = no disease control)” value in assay [2] (setting [3]) came out at 21%. Further, the “Test B disease rating (100 = 100% disease control, 0 = no disease control)” value with Plasmopara viticola (setting [4]) worked out at 14%.
Consider `C[C@H](c1ccccc1)N(C)C(=O)c1csc(C2CCN(C(=O)Cc3ccc(Cl)cc3Cl)CC2)n1` [compound 6], for which the “Test A disease rating (100 = 100% disease control, 0 = no disease control)” value in assay [1] (setting [3]) stood at 0%. Further, the “Test C disease rating (100 = 100% disease control, 0 = no disease control)” value in the assay on Phytophthora infestans (setting [3]) is reported as 0%. In addition, the “Test E disease rating (100 = 100% disease control, 0 = no disease control)” value in assay [2] (setting [3]) is 41%. Also, the “Test B disease rating (100 = 100% disease control, 0 = no disease control)” value with Plasmopara viticola (setting [4]) is 28%.
As for `C[C@H](c1ccccc1)N(C)C(=O)c1csc(C2CCN(C(=O)Cc3cccc(S(C)(=O)=O)c3)CC2)n1` [compound 31], the “Test A disease rating (100 = 100% disease control, 0 = no disease control)” value in assay [1] (setting [3]) amounted to 0%. In the assay on Phytophthora infestans (setting [3]), the “Test C disease rating (100 = 100% disease control, 0 = no disease control)” value came to 0%. Further, in assay [2] (setting [3]), the “Test E disease rating (100 = 100% disease control, 0 = no disease control)” value is given as 0%. Moreover, in the assay with Plasmopara viticola (setting [4]), the “Test B disease rating (100 = 100% disease control, 0 = no disease control)” value is reported as 0%.
On to `C[C@H](c1ccccc1)N(C)C(=O)c1csc(C2CCN(C(=O)Cc3ccc(F)c(C(F)(F)F)c3)CC2)n1` [compound 34], for which, in assay [1] (setting [3]), the “Test A disease rating (100 = 100% disease control, 0 = no disease control)” value is on record as 85%. The “Test C disease rating (100 = 100% disease control, 0 = no disease control)” value in the assay with Phytophthora infestans (setting [3]) came to 31%. Besides, the “Test E disease rating (100 = 100% disease control, 0 = no disease control)” value in assay [2] (setting [3]) came to 0%. In addition, in the assay on Plasmopara viticola (setting [4]), the “Test B disease rating (100 = 100% disease control, 0 = no disease control)” value amounted to 48%.
On to `C[C@H](c1ccccc1)N(C)C(=O)c1csc(C2CCN(C(=O)Cc3cc(F)cc(F)c3)CC2)n1` [compound 37], for which the “Test A disease rating (100 = 100% disease control, 0 = no disease control)” value in assay [1] (setting [3]) is 85%. Besides, the “Test C disease rating (100 = 100% disease control, 0 = no disease control)” value in the assay on Phytophthora infestans (setting [3]) amounted to 80%. Besides, the “Test E disease rating (100 = 100% disease control, 0 = no disease control)” value in assay [2] (setting [3]) is reported as 87%. In addition, the “Test B disease rating (100 = 100% disease control, 0 = no disease control)” value in the assay with Plasmopara viticola (setting [4]) came out at 23%.
`C[C@H](c1ccccc1)N(C)C(=O)c1csc(C2CCN(C(=O)Cc3cc(F)cc(C(F)(F)F)c3)CC2)n1` [compound 40]: the “Test A disease rating (100 = 100% disease control, 0 = no disease control)” value in assay [1] (setting [3]) is 98%. Further, the “Test C disease rating (100 = 100% disease control, 0 = no disease control)” value with Phytophthora infestans (setting [3]) is reported as 60%. Besides, the “Test E disease rating (100 = 100% disease control, 0 = no disease control)” value in assay [2] (setting [3]) came out at 0%. Further, the “Test B disease rating (100 = 100% disease control, 0 = no disease control)” value in the assay on Plasmopara viticola (setting [4]) stood at 76%.
The corresponding values for `C[C@H](c1ccccc1)N(C)C(=O)c1csc(C2CCN(C(=O)Cc3cccc(C(F)(F)F)c3F)CC2)n1` [compound 42] are 99%, 100%, 21% and 31%.
The corresponding values for `Cc1cc(C)cc(CC(=O)N2CCC(c3nc(C(=O)N(C)[C@H](C)c4ccccc4)cs3)CC2)c1` [compound 43] are 100%, 100%, 21% and 83%.
In the same order, the values of `C[C@H](c1ccccc1)N(C)C(=O)c1csc(C2CCN(C(=O)Cc3ccccc3OC(F)(F)F)CC2)n1` [compound 45] are 95%, 98%, 0% and 70%.
Consider `C[C@H](c1ccccc1)N(C)C(=O)c1csc(C2CCN(C(=O)Cc3cccc(OC(F)(F)F)c3)CC2)n1` [compound 49], for which the “Test A disease rating (100 = 100% disease control, 0 = no disease control)” value in assay [1] (setting [3]) amounted to 97%. For the same compound, in the assay on Phytophthora infestans (setting [3]), the “Test C disease rating (100 = 100% disease control, 0 = no disease control)” value was determined as 67%. Moreover, in assay [2] (setting [3]), the “Test E disease rating (100 = 100% disease control, 0 = no disease control)” value is reported as 85%. Besides, the “Test B disease rating (100 = 100% disease control, 0 = no disease control)” value with Plasmopara viticola (setting [4]) was 83%.
In the same order, the values of `C[C@H](c1ccccc1)N(C)C(=O)c1csc(C2CCN(C(=O)Nc3cccc(C(F)(F)F)c3)CC2)n1` [compound 155] are 100%, 31%, 0% and 41%.
In the same order, the values of `CN(Cc1ccccc1)C(=O)c1csc(C2CCN(C(=O)Cc3ccccc3Cl)CC2)n1` [compound 161] are 0%, 15%, 42% and 14%.
As to `C[C@@H](NC(=O)c1csc(C2CCN(C(=O)Cc3ccccc3Cl)CC2)n1)c1ccccc1` [compound 261], the “Test A disease rating (100 = 100% disease control, 0 = no disease control)” value in assay [1] (setting [5]) came out at 93. Further, the “Test C disease rating (100 = 100% disease control, 0 = no disease control)” value in the assay on Phytophthora infestans (setting [5]) was determined as 31. Also, in assay [2] (setting [6]), the “Test E disease rating (100 = 100% disease control, 0 = no disease control)” value was found to be 21. Besides, in the assay with Plasmopara viticola (setting [7]), the “Test B disease rating (100 = 100% disease control, 0 = no disease control)” value came to 0.
In the same order, the values of `O=C(NCc1ccccc1)c1csc(C2CCN(C(=O)Cc3ccccc3Cl)CC2)n1` [compound 262] are 94, 52, 0 and 6.
The corresponding values for `O=C(NC1Cc2ccccc2C1)c1csc(C2CCN(C(=O)Cc3ccccc3Cl)CC2)n1` [compound 265] are 0, 0, 47 and 34.
The corresponding values for `O=C(Cc1ccccc1Cl)N1CCC(c2nc(C(=O)N3CCc4ccccc4C3)cs2)CC1` [compound 267] are 95, 21, 0 and 6.
`CC1CCN(C(=O)c2csc(C3CCN(C(=O)Cc4ccccc4Cl)CC3)n2)CC1` [compound 268]: the “Test A disease rating (100 = 100% disease control, 0 = no disease control)” value in assay [1] (setting [5]) was found to be 0. Further, the “Test C disease rating (100 = 100% disease control, 0 = no disease control)” value in the assay with Phytophthora infestans (setting [5]) came to 36. For the same compound, in assay [2] (setting [6]), the “Test E disease rating (100 = 100% disease control, 0 = no disease control)” value came out at 0. The “Test B disease rating (100 = 100% disease control, 0 = no disease control)” value in the assay on Plasmopara viticola (setting [7]) worked out at 6.
Regarding `O=C(Cc1ccccc1Cl)N1CCC(c2nc(C(=O)N3CCCC3c3cccnc3)cs2)CC1` (stereo not drawn) [compound 269], the “Test A disease rating (100 = 100% disease control, 0 = no disease control)” value in assay [1] (setting [5]) is listed as 0. In addition, the “Test C disease rating (100 = 100% disease control, 0 = no disease control)” value in the assay with Phytophthora infestans (setting [5]) was determined as 0. Further, the “Test E disease rating (100 = 100% disease control, 0 = no disease control)” value in assay [2] (setting [6]) is 0. In addition, the “Test B disease rating (100 = 100% disease control, 0 = no disease control)” value with Plasmopara viticola (setting [7]) worked out at 40.
In the case of `C[C@@H](NC(=O)c1csc(C2CCN(C(=O)Cc3cccc(C(F)(F)F)c3)CC2)n1)c1ccc(Br)cc1` [compound 270], the “Test A disease rating (100 = 100% disease control, 0 = no disease control)” value in assay [1] (setting [5]) is given as 0. Further, in the assay with Phytophthora infestans (setting [5]), the “Test C disease rating (100 = 100% disease control, 0 = no disease control)” value stood at 0. For the same compound, in assay [2] (setting [6]), the “Test E disease rating (100 = 100% disease control, 0 = no disease control)” value amounted to 0. The “Test B disease rating (100 = 100% disease control, 0 = no disease control)” value with Plasmopara viticola (setting [7]) is reported as 0.

For the origin of these results see patent US8586611B2 (priority 2005, dated 2013).
